Test results taken from publication PMC8919507, “Dual Reversible Coumarin Inhibitors Mutually Bound to Monoamine Oxidase B and Acetylcholinesterase Crystal Structures” (ACS Medicinal Chemistry Letters, 2022).

Target: T1, mouse AChE (Mus musculus, UniProt P21836)
T1 sequence (P21836 32-614): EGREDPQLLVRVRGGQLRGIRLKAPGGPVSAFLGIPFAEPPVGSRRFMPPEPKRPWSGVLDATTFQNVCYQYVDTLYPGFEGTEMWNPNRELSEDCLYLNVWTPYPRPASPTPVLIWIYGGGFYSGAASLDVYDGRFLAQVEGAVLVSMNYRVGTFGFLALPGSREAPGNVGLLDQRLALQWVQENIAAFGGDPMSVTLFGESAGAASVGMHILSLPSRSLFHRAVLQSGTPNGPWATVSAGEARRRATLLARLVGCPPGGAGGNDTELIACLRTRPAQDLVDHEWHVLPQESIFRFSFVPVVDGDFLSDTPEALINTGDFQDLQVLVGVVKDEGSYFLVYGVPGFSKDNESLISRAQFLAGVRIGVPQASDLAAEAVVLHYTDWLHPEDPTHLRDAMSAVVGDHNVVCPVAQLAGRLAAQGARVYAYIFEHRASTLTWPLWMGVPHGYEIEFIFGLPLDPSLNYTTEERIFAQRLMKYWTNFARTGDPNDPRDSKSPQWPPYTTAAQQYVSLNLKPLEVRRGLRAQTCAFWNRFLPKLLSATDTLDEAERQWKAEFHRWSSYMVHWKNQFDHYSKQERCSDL
Assay: AChE inhibition, spectrophotometric Ellman's method on purified recombinant enzyme
Details: 1 mM acetylthiocholine iodide, pH 7.4
Protocol: Mouse AChE was expressed in HEK293 F cells and purified as previously reported.3 The activity
of AChE was measured using the Ellman assay adaped to a 96-well plate format.4 The
acetylthiocholine iodide was 1 mM. The measurements were performed in 0.1 M phosphate
Determination of IC50 values for the compounds
inhibition of AChE was performed as previously reported.6 At least 5 replicate IC50 determinations at 8
inhibitor concentrations were performed for each compound. The obtained dose-response curve was
fitted using the response variable slope versus log(inhibitor concentration) equation (four parameters) in
GraphPad Prism software 5.0.

`Cc1c(C)c2ccc(OCC3CCCN(Cc4ccccc4)C3)cc2oc1=O` (single isomer, unassigned; (-)) [(−)-2, 7-[(1-benzylpiperidin-3-yl)methoxy]-3,4-dimethyl-2H-chromen-2-one] gave an IC50 of 700 ± 50 nM.

`Cc1c(C)c2ccc(OCC3CCCN(Cc4ccccc4)C3)cc2oc1=O` (single isomer, unassigned; (+)) [(+)-2, 7-[(1-benzylpiperidin-3-yl)methoxy]-3,4-dimethyl-2H-chromen-2-one] was tested, and the IC50 was 1500 ± 100 nM.
